Results published in ChEMBL document CHEMBL3885881, “DrugMatrix”.

Species: Rattus norvegicus
Assay: DrugMatrix - Regimen: Daily Repeat
Assay type: toxicity, organism-based, Sprague-Dawley
Set-up: regimen Daily Repeat, gender Male, age 6-8 weeks
Conditions: in vivo, po, route oral GAVAGE, vehicle 100 % WATER
[1] = 0 mg/kg, 72 h, tissue Blood, dose level Control, time 3 day
[2] = 0 mg/kg, 72 h, tissue Plasma, dose level Control, time 3 day
[3] = 0 mg/kg, 120 h, tissue Blood, dose level Control, time 5 day
[4] = 0 mg/kg, 120 h, tissue Plasma, dose level Control, time 5 day
[5] = 24 mg/kg, 72 h, tissue Blood, dose level Low, time 3 day
[6] = 24 mg/kg, 72 h, tissue Plasma, dose level Low, time 3 day
[7] = 24 mg/kg, 120 h, tissue Blood, dose level Low, time 5 day
[8] = 24 mg/kg, 120 h, tissue Plasma, dose level Low, time 5 day

COLISTIN
BASOPHIL [1]: 0%
EOSINOPHIL [1]: 0.5%
ERYTHROCYTE COUNT [1]: 5.8 x10E6/uL
HEMATOCRIT [1]: 35.07%
LEUKOCYTE COUNT [1]: 13.7 x10E3/uL
MEAN CORPUSCULAR HEMOGLOBIN [1]: 24.38 pg
MEAN CORPUSCULAR HEMOGLOBIN CONCENTRATION [1]: 40.28 G/DL
MONOCYTE [1]: 2.67%
NEUTROPHIL [1]: 14.5%
PLATELET COUNT [1]: 911.5 x10E3/uL
ALANINE AMINOTRANSFERASE [2]: 36.83 u/L
ALKALINE PHOSPHATASE [2]: 399.83 u/L
ASPARTATE AMINOTRANSFERASE [2]: 66 u/L
BLOOD UREA NITROGEN [2]: 14.67 mg/dL
CHOLESTEROL [2]: 66.33 mg/dL
CREATINE PHOSPHOKINASE [2]: 139.5 u/L
CREATININE [2]: 0.92 mg/dL
GLUCOSE [2]: 175 mg/dL
PHOSPHORUS [2]: 11.42 mg/dL
TOTAL BILIRUBIN [2]: 1.13 mg/dL
TOTAL PROTEIN [2]: 6.87 G/DL
BASOPHIL [3]: 0%
EOSINOPHIL [3]: 0.2%
ERYTHROCYTE COUNT [3]: 6.02 x10E6/uL
LEUKOCYTE COUNT [3]: 12.34 x10E3/uL
LYMPHOCYTE [3]: 83%
MEAN CORPUSCULAR HEMOGLOBIN [3]: 23.92 pg
MEAN CORPUSCULAR VOLUME [3]: 60.66 fL
MONOCYTE [3]: 3%
NEUTROPHIL [3]: 13.8%
PLATELET COUNT [3]: 1190.6 x10E3/uL
ALANINE AMINOTRANSFERASE [4]: 43 u/L
ALKALINE PHOSPHATASE [4]: 393 u/L
ASPARTATE AMINOTRANSFERASE [4]: 62.33 u/L
CHOLESTEROL [4]: 65.5 mg/dL
CREATINE PHOSPHOKINASE [4]: 130.67 u/L
CREATININE [4]: 0.58 mg/dL
GLUCOSE [4]: 180.67 mg/dL
PHOSPHORUS [4]: 11.28 mg/dL
POTASSIUM [4]: 7.05 MEQ/L
TOTAL BILIRUBIN [4]: 0.72 mg/dL
TOTAL PROTEIN [4]: 6.83 G/DL
BASOPHIL [5]: 0%
EOSINOPHIL [5]: 0%
ERYTHROCYTE COUNT [5]: 5.85 x10E6/uL
LEUKOCYTE COUNT [5]: 13.3 x10E3/uL
LYMPHOCYTE [5]: 81.67%
MEAN CORPUSCULAR HEMOGLOBIN [5]: 24.6 pg
MEAN CORPUSCULAR HEMOGLOBIN CONCENTRATION [5]: 40.7 G/DL
MEAN CORPUSCULAR VOLUME [5]: 60.33 fL
MONOCYTE [5]: 2.67%
NEUTROPHIL [5]: 15.67%
PLATELET COUNT [5]: 839 x10E3/uL
ALANINE AMINOTRANSFERASE [6]: 41.67 u/L
ALBUMIN [6]: 3.7 G/DL
ALKALINE PHOSPHATASE [6]: 316 u/L
ASPARTATE AMINOTRANSFERASE [6]: 67 u/L
BLOOD UREA NITROGEN [6]: 14.33 mg/dL
CREATININE [6]: 0.77 mg/dL
GLUCOSE [6]: 176.33 mg/dL
PHOSPHORUS [6]: 11.3 mg/dL
POTASSIUM [6]: 6.83 MEQ/L
SODIUM [6]: 150 MEQ/L
TOTAL BILIRUBIN [6]: 0.87 mg/dL
TOTAL PROTEIN [6]: 6.77 G/DL
BASOPHIL [7]: 0%
EOSINOPHIL [7]: 0.33%
ERYTHROCYTE COUNT [7]: 6.34 x10E6/uL
HEMATOCRIT [7]: 37.4%
HEMOGLOBIN [7]: 14.6 G/DL
LEUKOCYTE COUNT [7]: 11.93 x10E3/uL
LYMPHOCYTE [7]: 83%
MEAN CORPUSCULAR HEMOGLOBIN [7]: 23 pg
MEAN CORPUSCULAR HEMOGLOBIN CONCENTRATION [7]: 39.03 G/DL
MEAN CORPUSCULAR VOLUME [7]: 58.97 fL
NEUTROPHIL [7]: 14.33%
PLATELET COUNT [7]: 1027.67 x10E3/uL
ALANINE AMINOTRANSFERASE [8]: 42.67 u/L
ALKALINE PHOSPHATASE [8]: 411.33 u/L
ASPARTATE AMINOTRANSFERASE [8]: 68.33 u/L
BLOOD UREA NITROGEN [8]: 15.67 mg/dL
CHOLESTEROL [8]: 64.33 mg/dL
CREATINE PHOSPHOKINASE [8]: 121.67 u/L
CREATININE [8]: 0.63 mg/dL
PHOSPHORUS [8]: 10.87 mg/dL
POTASSIUM [8]: 6.6 MEQ/L
SODIUM [8]: 149.67 MEQ/L
TOTAL BILIRUBIN [8]: 0.73 mg/dL
TOTAL PROTEIN [8]: 6.7 G/DL
